Laboratory results published in ChEMBL document CHEMBL3734719, “Discovery of highly potent triazoleantifungal agents with piperidine-oxadiazole side chains” (2015).
≈ marks a conversion by molar mass, not a printed value. Calls of active or inactive are those of the source. The rule behind the calls is not given here.

How the values were obtained:
[1] = tested on: Nannizzia gypsea; assay: Antifungal activity against Microsporum gypseum after 48 hrs by spectrophotometry; type: functional
[2] = tested on: Trichophyton rubrum; assay: Antifungal activity against Trichophyton rubrum after 48 hrs by spectrophotometry; type: functional
[3] = tested on: Candida parapsilosis; assay: Antifungal activity against Candida parapsilosis after 48 hrs by spectrophotometry; type: functional; conditions: Lodderomyces parapsilosis
[4] = tested on: Nakaseomyces glabratus; assay: Antifungal activity against Candida glabrata after 48 hrs by spectrophotometry; type: functional
[5] = tested on: Aspergillus fumigatus; assay: Antifungal activity against Aspergillus fumigatus after 48 hrs by spectrophotometry; type: functional
[6] = tested on: Candida albicans; assay: Antifungal activity against Candida albicans after 48 hrs by spectrophotometry; type: functional
[7] = tested on: Cryptococcus neoformans; assay: Antifungal activity against Cryptococcus neoformans after 48 hrs by spectrophotometry; type: functional
[8] = tested on: Candida albicans; assay: Antifungal activity against Candida albicans after 48 hrs by spectrophotometry relative to fluconazole; type: functional
[9] = tested on: Candida albicans; assay: Antifungal activity against fluconazole-resistant Candida albicans 0710922 after 48 hrs by spectrophotometry; type: functional; conditions: Candida albicans, 0710922, 48 h
[10] = tested on: Candida albicans; assay: Antifungal activity against fluconazole-resistant Candida albicans 103 after 48 hrs by spectrophotometry; type: functional; conditions: Candida albicans, 103, 48 h
[11] = tested on: Candida albicans; assay: Antifungal activity against Candida albicans SC5314 assessed as inhibition of yeast to hypha transisition at >1 ug/ml after 3 hrs measured as increase in pseudohyphal cells; type: functional, organism-based
[12] = tested on: Candida albicans; assay: Antifungal activity against Candida albicans SC5314 assessed as inhibition of yeast to hypha transisition at >1 ug/ml after 3 hrs measured as decrease in hyphae; type: functional, organism-based
[13] = tested on: Caenorhabditis elegans; assay: Growth inhibition of Caenorhabditis elegans at 1 to 160 ug/ml after 6 days; type: functional, organism-based
[14] = tested on: Candida albicans; assay: Antifungal activity against fluconazole-resistant Candida albicans 805 after 48 hrs by spectrophotometry; type: functional; conditions: Candida albicans, 805, 48 h
[15] = tested on: Candida albicans; assay: Antifungal activity against Candida albicans SC5314 assessed as inhibition of yeast to hypha transisition at >1 ug/ml after 3 hrs measured as increase in yeast cells; type: functional, organism-based

| SMILES | MIC80 [1] [µg/mL] | MIC80 [2] [µg/mL] | MIC80 [3] [µg/mL] | MIC80 [4] [µg/mL] | MIC80 [5] [µg/mL] | MIC80 [6] [µg/mL] | MIC80 [7] [µg/mL] | Ratio [8] | MIC50 [9] [µg/mL] | MIC80 [9] [µg/mL] | MIC50 [10] [µg/mL] | MIC80 [10] [µg/mL] | inhibition [11] | inhibition [12] | inhibition [13] | MIC50 [14] [µg/mL] | MIC80 [14] [µg/mL] | inhibition [15] |
| --- | --- | --- | --- | --- | --- | --- | --- | --- | --- | --- | --- | --- | --- | --- | --- | --- | --- | --- |
| COc1cccc(-c2noc(C3CCN(CC(O)(Cn4cncn4)c4ccc(F)cc4F)CC3)n2)c1 (configuration not stated) | 4 (≈ 8.06 µM) | 4 (≈ 8.06 µM) | 4 (≈ 8.06 µM) | 4 (≈ 8.06 µM) | 4 (≈ 8.06 µM) | 1 (≈ 2.01 µM) | 2 (≈ 4.03 µM) |  |  |  |  |  |  |  |  |  |  |  |
| Cc1ccc(-c2noc(C3CCN(CC(O)(Cn4cncn4)c4ccc(F)cc4F)CC3)n2)cc1 (configuration not stated) | 8 (≈ 16.6 µM) | 2 (≈ 4.16 µM) | 2 (≈ 4.16 µM) | 4 (≈ 8.32 µM) | 4 (≈ 8.32 µM) | 0.5 (≈ 1.04 µM) | 4 (≈ 8.32 µM) |  |  |  |  |  |  |  |  |  |  |  |
| OC(CN1CCC(c2nc(-c3ccco3)no2)CC1)(Cn1cncn1)c1ccc(F)cc1F (configuration not stated) | 2 (≈ 4.38 µM) | 2 (≈ 4.38 µM) | 1 (≈ 2.19 µM) | 1 (≈ 2.19 µM) | 1 (≈ 2.19 µM) | 0.063 (≈ 0.138 µM) | 0.5 (≈ 1.1 µM) |  |  |  |  |  |  |  |  |  |  |  |
| OC(CN1CCC(c2nc(-c3ccc(F)cc3)no2)CC1)(Cn1cncn1)c1ccc(F)cc1F (configuration not stated) | 1 (≈ 2.06 µM) | 4 (≈ 8.26 µM) | 2 (≈ 4.13 µM) | 2 (≈ 4.13 µM) | 2 (≈ 4.13 µM) | 0.5 (≈ 1.03 µM) | 1 (≈ 2.06 µM) |  |  |  |  |  |  |  |  |  |  |  |
| OC(CN1CCC(c2nnc(-c3ccc(F)cc3)o2)CC1)(Cn1cncn1)c1ccc(F)cc1F (configuration not stated) | 2 (≈ 4.13 µM) | 2 (≈ 4.13 µM) | 0.5 (≈ 1.03 µM) | 1 (≈ 2.06 µM) | 1 (≈ 2.06 µM) | 0.063 (≈ 0.13 µM) | ≤ 0.125 |  |  |  |  |  |  |  |  |  |  |  |
| COc1ccc(-c2noc(C3CCN(CC(O)(Cn4cncn4)c4ccc(F)cc4F)CC3)n2)cc1 (configuration not stated) | 2 (≈ 4.03 µM) | 0.5 (≈ 1.01 µM) | 0.25 (≈ 0.504 µM) | 1 (≈ 2.01 µM) | 1 (≈ 2.01 µM) | 0.016 (≈ 0.0322 µM) | 0.25 (≈ 0.504 µM) | 8 | 0.125 (≈ 0.252 µM) | 16 (≈ 32.2 µM) | 0.25 (≈ 0.504 µM) | 4 (≈ 8.06 µM) | Active | Active | inactive | 0.125 (≈ 0.252 µM) | 8 (≈ 16.1 µM) | Active |
| OC(CN1CCC(c2nc(-c3cccs3)no2)CC1)(Cn1cncn1)c1ccc(F)cc1F (configuration not stated) | 2 (≈ 4.23 µM) | 1 (≈ 2.12 µM) | 2 (≈ 4.23 µM) | 2 (≈ 4.23 µM) | 2 (≈ 4.23 µM) | 0.063 (≈ 0.133 µM) | 1 (≈ 2.12 µM) |  |  |  |  |  |  |  |  |  |  |  |
| OC(CN1CCC(c2nc(-c3ccsc3)no2)CC1)(Cn1cncn1)c1ccc(F)cc1F (configuration not stated) | 4 (≈ 8.47 µM) | 4 (≈ 8.47 µM) | 4 (≈ 8.47 µM) | 4 (≈ 8.47 µM) | 4 (≈ 8.47 µM) | 0.5 (≈ 1.06 µM) | 2 (≈ 4.23 µM) |  |  |  |  |  |  |  |  |  |  |  |
| OC(CN1CCC(c2nnc(-c3cccc4ccccc34)o2)CC1)(Cn1cncn1)c1ccc(F)cc1F (configuration not stated) | 8 (≈ 15.5 µM) | 4 (≈ 7.74 µM) | 8 (≈ 15.5 µM) | 8 (≈ 15.5 µM) | 8 (≈ 15.5 µM) | 1 (≈ 1.94 µM) | 4 (≈ 7.74 µM) |  |  |  |  |  |  |  |  |  |  |  |
| Cc1cccc(-c2nnc(C3CCN(CC(O)(Cn4cncn4)c4ccc(F)cc4F)CC3)o2)c1 (configuration not stated) | 0.5 (≈ 1.04 µM) | 2 (≈ 4.16 µM) | 2 (≈ 4.16 µM) | 2 (≈ 4.16 µM) | 2 (≈ 4.16 µM) | 0.25 (≈ 0.52 µM) | 1 (≈ 2.08 µM) |  |  |  |  |  |  |  |  |  |  |  |
| OC(CN1CCC(c2nnc(-c3ccco3)o2)CC1)(Cn1cncn1)c1ccc(F)cc1F (configuration not stated) | 4 (≈ 8.76 µM) | 2 (≈ 4.38 µM) | 0.5 (≈ 1.1 µM) | 0.5 (≈ 1.1 µM) | 0.5 (≈ 1.1 µM) | 0.125 (≈ 0.274 µM) | ≤ 0.125 |  |  |  |  |  |  |  |  |  |  |  |
| OC(CN1CCC(c2nc(-c3ccc(C(F)(F)F)cc3)no2)CC1)(Cn1cncn1)c1ccc(F)cc1F (configuration not stated) | 2 (≈ 3.74 µM) | 4 (≈ 7.48 µM) | 4 (≈ 7.48 µM) | 2 (≈ 3.74 µM) | 2 (≈ 3.74 µM) | 0.5 (≈ 0.935 µM) | 2 (≈ 3.74 µM) |  |  |  |  |  |  |  |  |  |  |  |
| OC(CN1CCC(c2nnc(-c3ccccc3F)o2)CC1)(Cn1cncn1)c1ccc(F)cc1F (configuration not stated) | 2 (≈ 4.13 µM) | 2 (≈ 4.13 µM) | 0.5 (≈ 1.03 µM) | 1 (≈ 2.06 µM) | 1 (≈ 2.06 µM) | 0.125 (≈ 0.258 µM) | ≤ 0.125 |  |  |  |  |  |  |  |  |  |  |  |
